{"source": "patent US8367410B2", "about": "“Application of electrical stimulation for functional tissue engineering in vitro and in vivo” (Massachusetts Institute of Technology, priority 2003, dated 2013)", "key": {"[1]": {"tested_on": "neonatal rat ventricles", "test": "Contractile function (ET, MCR) of neonatal rat ventricle slices, palmitoleic acid treatment and washout", "type": "cell-based", "details": "mean +/- SE", "method": "(§1) Contractile function. The contractile function of engineered cardiac constructs was evaluated by monitoring contractile activity upon electrical stimulation at ×10 magnification using a microscope (Nikon Diaphot). Each construct was placed in a 100-mm petri dish containing […] Tyrode solution (140 mM NaCl, 5.4 mM KC1, 0.33 mM NaH2PO4, 1.8 mM CaCl2, 1 mM MgCl2, 5 mM HEPES, and 5.5 MM D-glucose; pH 7.4) between two custom-made gold electrodes connected to a cardiac stimulator (Nihon Kohden). The temperature was maintained at 37° C. using a heating tape (VWR) attached to the bottom of the petri dish.\n(§2) The maximum capture rate (MCR) was defined as the maximum pacing frequency (in beats/min) for a synchronous stimulus response of the constructs. To measure MCR, the stimulation frequency was increased (from 60 to 600 beats/min, in 20 beats/min increments) at a constant voltage (equal to either 150% or 200% of the ET). The construct response was measured at each frequency, and the frequency was increased until the contractions became asynchronous, irregular, or completely ceased. The maximum frequency for synchronous contractions was recorded as the MCR. The value of ET, which was different from one construct to another due to the differences in their structures, served as the baseline voltage for the measurement of MCR.\n(§3) Constructs cultured in perfused cartridges were compared with constructs cultured in mixed dishes and to neonatal rat ventricles (full thickness slices obtained by bisecting the left ventricle parallel to the base apex line). The effect of palmitoleic acid (PA), a gap junction blocker (4), was investigated by incubating constructs or slices of native ventricles in PA (8.3 mM in Tyrode solution) for 20 min at 37° C. and then determining ET and MCR as described above. To test whether the effect of PA was reversible, constructs were transferred to Tyrode solution and retested after an additional 20 min at 37° C."}, "[2]": {"tested_on": "engineered cardiac constructs cultured in mixed dishes", "test": "Contractile function (ET, MCR) of dish-grown constructs, palmitoleic acid treatment and washout", "type": "cell-based, rat", "method": "as §1, §2, §3"}, "[3]": {"tested_on": "engineered cardiac constructs", "test": "Contractile activity of constructs during incubation with palmitoleic acid", "type": "cell-based, rat", "method": "as §1, §3"}, "[4]": {"tested_on": "engineered cardiac constructs cultured in perfused cartridges", "test": "Contractile function (ET, MCR) of perfused constructs, palmitoleic acid treatment and washout", "type": "cell-based, rat", "details": "mean +/- SE", "method": "as §1, §2, §3"}, "[5]": {"details": "dish-grown construct, after washout of PA, mean +/- SE"}, "[6]": {"details": "perfused construct, after washout of PA"}}, "note": "Marks after values point to notes of the source that are not given here."}
{"smiles": "CCCCCC/C=C\\CCCCCCCC(=O)O", "note": "[PA, palmitoleic acid]", "values": [{"measurement": "ET (excitation threshold), After PA", "setting": "[1]; after washout of PA (8.3 mM, 20 min, 37° C.), stimulation 60 beats/min", "value": "1.5 +/− 0.1 V"}, {"measurement": "MCR at 150% ET, After PA", "setting": "[1]; after washout of PA", "value": "465 +/− 15 beats/min"}, {"measurement": "MCR at 200% ET, After PA", "setting": "[1]; after washout of PA", "value": "427 +/− 58 beats/min"}, {"measurement": "ET (excitation threshold), After PA", "setting": "[2]; dish-grown construct (7 days at 25 rpm), after washout of PA (8.3 mM, 20 min), 60 beats/min, mean +/- SE", "value": "4.4 +/− 0.1^ab V"}, {"measurement": "MCR at 150% ET, After PA", "setting": "[2]; [5]", "value": "378 +/− 31^c beats/min"}, {"measurement": "MCR at 200% ET, After PA", "setting": "[2]; [5]", "value": "380 +/− 31^c beats/min"}, {"measurement": "Recovery of MCR after PA washout", "setting": "[2]; dish-grown constructs", "value": "failed to recover their baseline levels"}, {"measurement": "Contractile activity after the washout of PA", "setting": "[3]; after transfer to Tyrode solution, 20 min at 37° C.", "value": "Contractile activity resumed"}, {"measurement": "Voltage at which synchronous construct contractions could not be induced", "setting": "[3]; upon incubation with PA (8.3 mM in Tyrode solution)", "value": "> 9.9", "unit": "V"}, {"measurement": "ET (excitation threshold), After PA", "setting": "[4]; perfused construct (7 days at 500 μm/s), after washout of PA (8.3 mM, 20 min), 60 beats/min", "value": "3.5 +/− 0.1^a V"}, {"measurement": "MCR at 150% ET, After PA", "setting": "[4]; [6]", "value": "415 +/− 35 beats/min"}, {"measurement": "MCR at 200% ET, After PA", "setting": "[4]; [6]", "value": "435 +/− 45 beats/min"}]}
